Data taken from patent US20150087606A1, “PHARMACEUTICAL COMPOSITION FOR PREVENTING OR TREATING AMYLOID BETA PEPTIDE-ASSOCIATED DISEASES OR CONDITIONS” (Sinphar Tian-Li Pharmaceutical Co., Ltd. (Hangzhou), priority 2011, published 2015).
Entries after “also recorded” stand apart in the source; their conditions may differ.

How the values were obtained:
[1] = tested on: extracellular Aβ1-40 accumulation, SH-SY5Y cells; assay: Effect of each test sample on extracellular Aβ1-40 accumulation (Human Aβ1-40 immunoassay of the medium); assay type: cell-based
Description: Wild-type human neuroblastoma cells (SH-SY5Y) were cultured in Eagle's Minimum essential Medium (EMEM)/Ham's F12 medium (1:1 mixture) (containing 10% FBS, 10 units/ml penicillin, 10 μg/ml Streptomycin). Wild-type mouse neuroblastoma Neuro-2a cells were cultured in minimum essential medium (MEM) (containing 10% FBS, 10 units/ml penicillin, 10 μg/ml Streptomycin).
The medium of the wild-type human neuroblastoma SH-SY5Y cells in Example 1 were switched into chemical defined medium (EMEM/F12 medium (Cat. No. 12500-062), Hepes 5 mM, Glucose 0.6%, NaHCO3 3 mM, Glutamine 2.5 mM, Insulin 25 μg/ml, Transferin 100 μg/ml, Progestrone 20 nM, Putrescine 60 μM, Sodium selenite 30 nM, Heparin 2 μg/ml). Each well contained 1×10^5 SH-SY5Y cells in 300 μl of culture medium. Thirty minutes later, each well was treated with the test samples given in Table 1 respectively at a total concentration of 50 μg/ml for 24 hours. After that, the level of Aβ1-40 in the medium of each well was analyzed by Human Aβ1-40 immunoassay kits (Catalog #KHB3482 Invitrogen).
Human neuroblastoma SH-SY5Y cells cause extracellular accumulation of Aβ. […] The results were shown in mean ± standard deviation (SD) form. Significant difference between the Vehicle control group and the test sample-treated groups were indicated by * * * , P<0.001.

Human Aβ1-42 = Human Aβ1-42 (Homo sapiens, UniProt P05067); assay: Effect of each test sample on Aβ1-42 oligomerization (thioflavin T fluorescence); assay type: biochemical; settings: 50 μg/ml, 4° C., 24 hours, thioflavin T fluorescence (FIG. 2)
Sequence of Human Aβ1-42 (P05067 672-713 limits assumed): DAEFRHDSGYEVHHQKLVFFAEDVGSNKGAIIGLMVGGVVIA
Description: Dried Human Aβ1-42 was taken out from the refrigerator and equilibrated to room temperature. Aβ1-42 was dissolved in 1,1,1,3,3,3-Hexa-fluro-2-propanol (HFIP) to a concentration of 1 mM, and was then placed at room temperature for one hour. The Aβ1-42/HFIP solution was aliquoted by Hamilton syringe, and was then dried under a stream of nitrogen gas, followed by storing at a temperature of −20° C. Aβ1-42 treated with HFIP was dissolved in PBS, and was vibration-incubated with treatment of each test sample at a concentration of 50 μg/ml and at 4° C. for 24 hours to prepare Aβ1-42 oligomers. The level of Aβ1-42 oligomerization was analyzed by thioflavin T fluorescence (Ex=450 nm, Em=482 nm). […] That is to say, these pharmaceutical compositions can be used to prevent or treat Aβ-associated diseases or conditions.

SMILES	reduces the level of Aβ1-40 in the medium ([1]; total concentration of 50 μg/ml, 24 hours, based on Vehicle control group (FIG. 1))	activity on inhibiting Aβ1-42 oligomerization (in words) (Human Aβ1-42)	activity on reducing extracellular Aβ1-40 accumulation (in words) ([1]; total 50 μg/ml, 24 hours (FIG. 1))
C[C@@H]1O[C@@H](O[C@@H]2[C@@H](O)[C@H](OCCc3ccc(O)c(O)c3)O[C@H](CO)[C@H]2OC(=O)/C=C/c2ccc(O)c(O)c2)[C@H](O)[C@H](O)[C@H]1O [A, Acteoside]	about 10%	–	–
C[C@@H]1O[C@@H](O[C@@H]2[C@@H](O)[C@H](OCCc3ccc(O)c(O)c3)O[C@H](COC(=O)/C=C/c3ccc(O)c(O)c3)[C@H]2O)[C@H](O)[C@H](O)[C@H]1O [I, Isoacteoside]	–	better activity	significant activity; also recorded: better activity
